Literature values, collected in patent US20220331292A1, “COMPOSITIONS AND METHODS FOR DELIVERY OF PSILOCIN AND PRODRUGS THEREOF” (priority 2021, published 2022).

Legend:
[1] = biological target: 5-HT2a serotonin receptor (Homo sapiens, UniProt P28223)
[2] = not given; remark: listed apart in the source
[3] = psilocin after escalating doses of psilocybin

5-HT2a serotonin receptor, sequence (P28223 whole entry): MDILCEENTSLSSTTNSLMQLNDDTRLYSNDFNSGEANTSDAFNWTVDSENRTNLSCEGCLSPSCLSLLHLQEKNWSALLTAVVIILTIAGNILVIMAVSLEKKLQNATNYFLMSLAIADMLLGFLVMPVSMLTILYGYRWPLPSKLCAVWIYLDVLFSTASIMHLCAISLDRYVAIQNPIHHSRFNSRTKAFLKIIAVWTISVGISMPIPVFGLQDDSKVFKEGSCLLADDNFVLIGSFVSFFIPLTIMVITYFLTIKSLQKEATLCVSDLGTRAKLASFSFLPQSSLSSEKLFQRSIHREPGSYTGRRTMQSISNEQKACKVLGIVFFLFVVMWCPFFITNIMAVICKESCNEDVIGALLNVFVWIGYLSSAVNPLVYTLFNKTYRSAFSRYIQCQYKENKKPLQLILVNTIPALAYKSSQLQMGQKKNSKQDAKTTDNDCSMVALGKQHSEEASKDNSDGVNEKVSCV

CN(C)CCc1c[nH]c2cccc(O)c12 [Psilocin, psilocin]
binding affinity with 5-HT2a [1]: high binding affinity
half-life [3]: three
pharmacokinetics (linearity) [3]: linear

CN(C)CCc1c[nH]c2cccc(OP(=O)(O)O)c12 [Psilocybin, psilocybin]
share of metabolized psilocybin excreted in the urine as psilocin-O-glucuronide [2]: About 80%
serious physical or psychological events (oral 0.3, 0.45 and 0.6 mg/kg at monthly intervals, during or within 30 days of any dose): no serious physical or psychological events
